From patent US20040033936A1, “Production, stabilisation and use of reduced forms of pharmaceutical compounds” (priority 2000, published 2004)

Assays:
[1] = Qualitative assessment of reduction of methylene blue in aqueous solution (visual colour change blue to colourless); type: physicochemical; settings: for Rate/extent of reduction: neutral, final pH about 6.5; for Rate of reduction: compared to neutral pH
Experimental: In aqueous solution, the oxidised form of methylene blue has a deep blue coloration, and the reduced (leuco) form is colourless and clear. Reduction of methylene blue can therefore be determined by observation of a colour change from blue to colourless. In the present experiments, the colour change was measured by eye against a white background, but instrumentation, e.g. a visible range spectrophotometer, could also be used.
Individual reducing agents or combinations of reducing agents were added to a solution of methylene blue. […] Reduction of methylene blue was assessed by visual observation of colour change. […] The pH of the final solution of methylene blue and reducing agent(s) was about pH 6.5 in each case (here referred to as “neutral”).
Individual reducing agents or combinations of reducing agents were added, in solution; to a methylene blue solution which had been made either acid or alkaline using acetic acid or sodium hydroxide, respectively. The effect of pH on reduction of methylene blue was determined. Reduction of methylene blue was assessed by visual observation of colour change. The rate of reduction (if any) was compared to the rates of reduction at neutral pH.
In the present context, “acid” refers to a pH adjusted to approximately 3.7 using acetic acid, and “alkali” refers to a pH adjusted to approximately 9.8 using sodium hydroxide. The results are as follows: […]

[2] = Qualitative assessment of reduction of thionine in aqueous solution (visual colour change blue/purple to colourless); type: physicochemical; settings: thionine 50 mg/30 ml; reducing agents 250 mg/3 ml
Experimental: The following reducing agents or combinations of reducing agents (250 mg/3 ml) were added to an aqueous solution of thionine (50 mg/30 mU. Reduction of thionine was determined by visual observation of colour change from blue/purple to colourless. All experiments used 1.67 mg/mI (50 mg/30 ml) thionine solution. Ascorbic acid, L-cysteine or glutathione was used in solution at 83.3 mg/mi (250 mg/3 ml).

[3] = acid, pH approximately 3.7 (acetic acid)
[4] = alkali, pH approximately 9.8 (sodium hydroxide)

SMILES | Rate/extent of reduction [1] | Rate of reduction [2] | Rate of reduction [1, 4] | Rate of reduction [1, 3]
O=S([O-])S(=O)[O-].[Na+].[Na+] [sodium hydrosulphite] | very rapid reduction | rapid reduction |  | 
CSCC[C@H](N)C(=O)O [methionine] | no reduction |  |  | 
O=S([O-])S(=O)(=O)[O-].[Na+].[Na+] [sodium metabisulphite] | no reduction |  |  | 
O=C1O[C@H]([C@@H](O)CO)C(O)=C1O [ascorbic acid] | reduced slowly over 10-15 minutes | reduced in about 10-15 minutes | no change in rate compared to neutral | no change in rate compared to neutral
Cl.N[C@@H](CS)C(=O)O [L-cysteine, L-cysteine hydrochloride] | no reduction |  |  | 

The next lines start with results.

Rate/extent of reduction [1] | Rate of reduction [2] | Rate of reduction [1, 4] | SMILES | Rate of reduction [1, 3]
partial reduction |  |  | CC(=O)N[C@@H](CS)C(=O)O [N-acetyl-L-cysteine, N-acetyl L-cysteine] | 
no reduction over 15 minutes | no reduction | slight reduction over 10-15 minutes | N[C@@H](CCC(=O)N[C@@H](CS)C(=O)NCC(=O)O)C(=O)O [glutathione] | no observable reduction (as with neutral)
